Laboratory results reported in ChEMBL document CHEMBL1201862, “PubChem BioAssay data set” (2004).
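The compound was tested at five concentrations on cells cultured in 96-well plates, with a 48-hour exposure period. GI50: concentration for 50% inhibition of growth.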 Active and inactive are the calls of the source. Rule as the data show it: active = GI50 up to about 1.1 µM and inactive = higher.

Assays:
Test in all cases: NCI anticancer screen, dose series, 48 h
[1] = system: A549
[2] = system: HCC 2998
[3] = system: IGROV-1
[4] = system: K562
[5] = system: M14
[6] = system: MDA-N
[7] = system: NCI-H23
[8] = system: OVCAR-3
[9] = system: OVCAR-8
[10] = system: SF-268
[11] = system: SNB-19
[12] = system: SNB-75
[13] = system: TK-10
[14] = system: U-251
[15] = system: UACC-62
[16] = system: UO-31
[17] = system: LOX IMVI
[18] = system: SF-539
[19] = system: SR

SMILES	GI50 [1]	GI50 [2]	GI50 [3]	GI50 [4]	GI50 [5]	GI50 [6]	GI50 [7]	GI50 [8]	GI50 [9]	GI50 [10]	GI50 [11]	GI50 [12]	GI50 [13]	GI50 [14]	GI50 [15]	GI50 [16]	GI50 [17]	GI50 [18]	GI50 [19]
Clc1cccc(Cl)c1C1SCc2nc3cc4ccccc4cc3n21 (configuration not stated)	> 100 µM (inactive)	> 100 µM (inactive)	> 100 µM (inactive)	> 100 µM (inactive)	> 100 µM (inactive)	> 100 µM (inactive)	> 100 µM (inactive)	> 100 µM (inactive)	> 100 µM (inactive)	> 100 µM (inactive)	> 100 µM (inactive)	> 100 µM (inactive)	> 100 µM (inactive)	> 100 µM (inactive)	> 100 µM (inactive)	> 100 µM (inactive)			
COC(=O)c1ccccc1C1CN=NC12Cc1c(ccc(C)c1C)C2=O (configuration not stated)	> 100 µM (inactive)	> 100 µM (inactive)	> 100 µM (inactive)	> 100 µM (inactive)	> 100 µM (inactive)	> 100 µM (inactive)	> 100 µM (inactive)	45.7 µM (inactive)	61.1 µM (inactive)	39.1 µM (inactive)	85.9 µM (inactive)	22 µM (inactive)	> 100 µM (inactive)	48.3 µM (inactive)	> 100 µM (inactive)	> 100 µM (inactive)	> 100 µM (inactive)		
COc1ccc(C2=NNC(=O)c3ccccc3N2c2nc(-c3cccs3)nc3ccc(Br)cc23)cc1	60.7 µM (inactive)		63.5 µM (inactive)	99.5 µM (inactive)	37.4 µM (inactive)		31 µM (inactive)	23 µM (inactive)	53.5 µM (inactive)	31 µM (inactive)	30.1 µM (inactive)	41.4 µM (inactive)	28.2 µM (inactive)	28.8 µM (inactive)	64.1 µM (inactive)	> 100 µM (inactive)	27.1 µM (inactive)	16.7 µM (inactive)	42 µM (inactive)
O=C1C=C(Nc2cccnc2)c2ccccc2/C1=N/O	39.6 µM (inactive)	22.5 µM (inactive)	13.6 µM (inactive)	24.7 µM (inactive)	23.2 µM (inactive)	12.6 µM (inactive)	19.7 µM (inactive)	1.81 µM (inactive)	21.5 µM (inactive)	9.77 µM (inactive)	1.38 µM (inactive)	5.69 µM (inactive)	> 100 µM (inactive)	26.3 µM (inactive)	20.9 µM (inactive)	21 µM (inactive)	26.3 µM (inactive)	18.5 µM (inactive)	
Cc1n(Cc2ccccc2)c2c([n+]1C)C(=O)c1ccccc1C2=O	0.0478 µM (active)	0.236 µM (active)	0.0301 µM (active)	0.0366 µM (active)	0.0902 µM (active)	0.173 µM (active)	0.0434 µM (active)	< 0.0136 µM (active)	0.0431 µM (active)	0.0274 µM (active)	0.0581 µM (active)	0.0736 µM (active)	0.265 µM (active)	0.0324 µM (active)	0.17 µM (active)	4.57 µM (inactive)	0.0473 µM (active)	0.026 µM (active)	
CCOC(=O)Cc1nc2nn(Cc3ccccc3)cc2c(=O)[nH]1	> 100 µM (inactive)	> 100 µM (inactive)	> 100 µM (inactive)	> 100 µM (inactive)		> 100 µM (inactive)	> 100 µM (inactive)	> 100 µM (inactive)	> 100 µM (inactive)	> 100 µM (inactive)	> 100 µM (inactive)	> 100 µM (inactive)	> 100 µM (inactive)	> 100 µM (inactive)	> 100 µM (inactive)	> 100 µM (inactive)	> 100 µM (inactive)	> 100 µM (inactive)	
C=C(Cl)C(Br)(CBr)CCC(Br)C(C)(C)Br (configuration not stated)	6.87 µM (inactive)	> 10 µM (inactive)	1.55 µM (inactive)	1.88 µM (inactive)	> 10 µM (inactive)	7.57 µM (inactive)	> 10 µM (inactive)	> 10 µM (inactive)		2.51 µM (inactive)	4.25 µM (inactive)	4.7 µM (inactive)	> 10 µM (inactive)	5.11 µM (inactive)	4.11 µM (inactive)	> 10 µM (inactive)		2.54 µM (inactive)	
CCCCC/N=C/c1c(O)c(O)c(C(C)C)c2cc(C)c(-c3c(C)cc4c(C(C)C)c(O)c(O)c(/C=N/CCCCC)c4c3O)c(O)c12	5.58 µM (inactive)	10.7 µM (inactive)	9.98 µM (inactive)	4.25 µM (inactive)	38.1 µM (inactive)		12 µM (inactive)	5.28 µM (inactive)	7.4 µM (inactive)	6.5 µM (inactive)	3.78 µM (inactive)		15 µM (inactive)	3.06 µM (inactive)	7.03 µM (inactive)	7.13 µM (inactive)	3.52 µM (inactive)	6.08 µM (inactive)	4.24 µM (inactive)
Cn1c2ccccc2c(=O)c2c(O)cc3c(c21)C=CC1(CCCC1)O3	> 100 µM (inactive)	> 100 µM (inactive)	61.7 µM (inactive)	3.51 µM (inactive)	> 100 µM (inactive)		68.1 µM (inactive)	> 100 µM (inactive)	> 100 µM (inactive)	> 100 µM (inactive)	> 100 µM (inactive)	> 100 µM (inactive)	> 100 µM (inactive)	> 100 µM (inactive)	> 100 µM (inactive)		> 100 µM (inactive)	50.5 µM (inactive)	37.3 µM (inactive)
NC(=S)c1cccc(C2Nc3ccccc3O2)c1 (configuration not stated)	41.5 µM (inactive)		> 100 µM (inactive)	30.5 µM (inactive)	> 100 µM (inactive)		49.9 µM (inactive)	> 100 µM (inactive)	> 100 µM (inactive)	> 100 µM (inactive)	> 100 µM (inactive)	> 100 µM (inactive)	81.1 µM (inactive)	> 100 µM (inactive)	19.5 µM (inactive)	> 100 µM (inactive)		61.1 µM (inactive)	> 100 µM (inactive)
O=P1(Oc2ccccc2)N=P(c2ccccc2)(c2ccccc2)C=C(c2ccc(Cl)cc2)N1 (configuration not stated)	3.97 µM (inactive)		12.2 µM (inactive)	5.43 µM (inactive)	7.67 µM (inactive)	8.87 µM (inactive)	15.3 µM (inactive)	4.51 µM (inactive)	14.4 µM (inactive)	11.6 µM (inactive)	15.3 µM (inactive)		13.1 µM (inactive)	5.51 µM (inactive)	13.9 µM (inactive)	12 µM (inactive)		15.3 µM (inactive)	3.6 µM (inactive)
COC(=O)CN1SC2(SC13C(C)(C)C(=O)C3(C)C)C(C)(C)C(=O)C2(C)C	51.2 µM (inactive)	80.2 µM (inactive)	89.5 µM (inactive)	52.6 µM (inactive)	> 100 µM (inactive)		> 100 µM (inactive)	41.6 µM (inactive)	64.4 µM (inactive)	36.1 µM (inactive)	> 100 µM (inactive)	37.8 µM (inactive)	> 100 µM (inactive)	94.4 µM (inactive)	> 100 µM (inactive)	86.3 µM (inactive)	46.9 µM (inactive)	> 100 µM (inactive)	81.8 µM (inactive)
COC(=O)c1ccccc1C1CN=NC12Cc1c(C)ccc(C)c1C2=O (configuration not stated)	> 100 µM (inactive)	> 100 µM (inactive)	> 100 µM (inactive)	68.5 µM (inactive)	> 100 µM (inactive)	> 100 µM (inactive)	> 100 µM (inactive)	> 100 µM (inactive)	> 100 µM (inactive)	> 100 µM (inactive)	> 100 µM (inactive)	> 100 µM (inactive)	> 100 µM (inactive)	> 100 µM (inactive)	> 100 µM (inactive)	> 100 µM (inactive)	> 100 µM (inactive)	> 100 µM (inactive)	
CCOC(=O)c1ccc2nc(NC(=O)COC(=O)CSc3nc(C)cc(C)n3)sc2c1	42.9 µM (inactive)		27 µM (inactive)	> 100 µM (inactive)	41.6 µM (inactive)		> 100 µM (inactive)	25.3 µM (inactive)	57.9 µM (inactive)	67.8 µM (inactive)	37.8 µM (inactive)	16.4 µM (inactive)	29.3 µM (inactive)	48.6 µM (inactive)	25.8 µM (inactive)	13.9 µM (inactive)	48 µM (inactive)	26.1 µM (inactive)	52.7 µM (inactive)
COc1ccc(/N=C(C)/C(C)=N/c2ccc(OC)cc2)cc1	37.9 µM (inactive)	20.2 µM (inactive)	> 100 µM (inactive)	64.9 µM (inactive)	9.91 µM (inactive)		73.6 µM (inactive)	> 100 µM (inactive)	58.6 µM (inactive)	52.5 µM (inactive)	> 100 µM (inactive)	> 100 µM (inactive)	> 100 µM (inactive)	> 100 µM (inactive)		6.97 µM (inactive)	5.02 µM (inactive)	30.8 µM (inactive)	65.6 µM (inactive)
C=CC[C@@H]1C=C[C@@H](C(=O)OC)n2c(=O)n(-c3ccccc3)c(=O)n21		> 100 µM (inactive)	> 100 µM (inactive)	> 100 µM (inactive)	> 100 µM (inactive)		> 100 µM (inactive)	> 100 µM (inactive)	> 100 µM (inactive)	> 100 µM (inactive)	> 100 µM (inactive)	> 100 µM (inactive)	> 100 µM (inactive)	> 100 µM (inactive)	> 100 µM (inactive)	> 100 µM (inactive)	> 100 µM (inactive)	> 100 µM (inactive)	> 100 µM (inactive)
